Patent publication US9776992B2, “1-oxo-1,2-dihydroisoquinolin-7-yl-(5-substituted-thiophen-2-yl)-sulfonamide compounds, formulations containing those compounds, and their use as AICARFT inhibitors in the treatment of cancers” (Eli Lilly and Company, priority 2014, dated 2017)

Target: AICARFT (Homo sapiens, UniProt P31939)
Test: MS detection of ZMP in low folate media cultured NCI-H460 cells
Format: cell-based
Design: endogenous in cells; host or cells: NCI-H460
Details: for IC50: Mean ± SEM, ZMP concentration by LC-MS, NCI-H460 cells in low folate media, 16 hours; for AICARFT inhibition in low folate media assay (in words): low levels of folate in the media, summary of Table 16
Procedure: Grow NCI-H460 cells in complete high folate RPMI media (ATCC #30-2001) until cellular confluence reaches ˜80%. Wash cells with PBS, trypsinize, resuspend cells in complete low folate RPMI media (Gibco #27016-021) and perform a cell count. Transfer 1.25×10^6 cells to a T225 flask containing complete low folate RPMI media (40 mL). Grow for seven days. Split cells again with complete low folate media if confluence surpasses 80%. Wash cells with PBS, trypsinize, resuspend cells in complete low folate RPMI media, and perform a cell count. Aliquot 10×10^6 cells in complete low folate media (1 mL)+5% DMSO per cryovial. Use a cell freezing apparatus to freeze cells in a slow and controlled manner in a −80° C. freezer. The next day, transfer cells to liquid nitrogen for long term storage. Thaw frozen cells from cryovial in 37° C. water bath, wash cells once with low folate assay medium: folate free RPMI 1640 medium (Gibco, #27016-021), Glucose (Sigma, #G5767), Hepes (Hyclone, #SH30237.01), Na Pyruvate (Hyclone, #Sh30239.01), 10% FBS (Hyclone, #SH30070.03). Adjust cells concentration to 250,000 cells/mL with medium, plate cells by adding 100 μl/well (25,000 cells/well) into Biocoat poly-D-lysine 96-well plate (BD, #35-4640), and incubate at 37° C. overnight with 5% CO2. Treat cells with 20 μl/well compound diluted in media containing 3% DMSO. Incubate at 37° C. for 16 hours with 5% CO2, then remove the medium and add 1× SureFire Lysis Buffer (50 μL) (PerkinElem, SureFire® Kit component) to each well and incubate at room temperature for 10 min with gentle shaking.
Cells grown in a 96-well plate have the media removed and are lysed in AlphaScreen® SureFire® lysis buffer. Standard curves containing ZMP, dUMP and AICAr at concentrations of 5-10,000 ng/mL are prepared in 40 mM ammonium acetate, pH 4. Aliquots (40 μL) of each standard or sample are combined in a deep 96-well plate with 160 μL of internal standard solution containing ^13C5-ZMP (custom synthesis) and ^13C5-AICAr (custom synthesis) at 100 ng/mL in 40 mM ammonium acetate, pH 4. A Beckman Biomek FX liquid handler is used to add 400 μL of DCM to each sample. Samples are sealed, vortexed for 5 minutes, and placed in the refrigerator for at least 30 minutes. The samples are centrifuged for 10 minutes at 4,000 rpm and 4° C. using an Eppendorf 5810R centrifuge, and the Biomek liquid handler is used to transfer 75 μL of the aqueous layer into a clean 96-well plate. The plates are sealed prior to analysis.
The LC-MS method utilizes a Shimadzu Prominence 20A HPLC system connected to an AB Sciex 5500™ or an AB Sciex 6500™ triple quadrupole mass spectrometer running Analyst® 2.1 software. Extracted samples are separated using a Thermo Hypercarb™ Javelin guard column (2.1×20 mm, […]) with an injection volume of 15 μL and a flow rate of 1 mL/minute. Mobile phase A is a 95:5 mixture of 50 mM ammonium formate, pH 4 and ACN. Mobile phase B is a 70:30 mixture of ACN and MeOH spiked with 0.3% formic acid and 2% concentrated ammonium hydroxide solution (v/v). The gradient is as follows: 0 minutes, 0% B; 0.25 minutes, 0% B; 2.00 minutes, 30% B; 2.01 minutes, 95% B; 3.50 minutes, 95% B, 3.51 minutes, 0% B, 5.00 minutes, stop.
The mass spectrometer is operated in positive ion TurboIonSpray® multiple reaction monitoring mode with a source temperature of 700° C. The precursor and fragment ions for each analyte are: ZMP (339→110), ^13C5-ZMP (344→110), dUMP (309→81), AICAr (259→127) and ^13C5-AICAr (264→127). Calibration curves are constructed by plotting analyte concentrations vs. analyte/internal standard peak area ratios and performing a linear fit of the data using a 1/concentration weighting with AB Sciex MultiQuant™ 2.1 software. Back-calculated ZMP concentrations are fit to a four-parameter logistic equation using ACTIVITYBASE 4.0 to determine IC50 values.

AICARFT, sequence (P31939 whole entry): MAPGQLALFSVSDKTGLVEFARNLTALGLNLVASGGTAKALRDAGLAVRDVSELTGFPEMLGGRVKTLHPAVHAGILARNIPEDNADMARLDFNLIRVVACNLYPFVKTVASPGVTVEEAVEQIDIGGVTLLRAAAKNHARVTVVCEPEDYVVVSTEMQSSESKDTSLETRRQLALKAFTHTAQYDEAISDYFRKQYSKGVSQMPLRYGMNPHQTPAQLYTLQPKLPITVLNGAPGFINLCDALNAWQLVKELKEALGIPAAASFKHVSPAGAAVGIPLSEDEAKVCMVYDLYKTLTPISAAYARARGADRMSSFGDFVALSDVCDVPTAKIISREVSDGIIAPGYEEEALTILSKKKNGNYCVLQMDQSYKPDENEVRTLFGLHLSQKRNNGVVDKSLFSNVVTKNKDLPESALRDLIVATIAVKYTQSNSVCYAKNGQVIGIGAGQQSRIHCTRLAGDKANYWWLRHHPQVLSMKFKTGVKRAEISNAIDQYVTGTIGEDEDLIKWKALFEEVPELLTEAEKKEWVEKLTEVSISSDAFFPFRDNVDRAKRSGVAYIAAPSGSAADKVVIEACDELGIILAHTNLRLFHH

Compound	IC50 [nM]	AICARFT inhibition in low folate media assay (in words)
O=c1[nH]ccc2cc(F)c(NS(=O)(=O)c3ccc(N4C[C@@H](O)[C@@H](F)C4)s3)cc12 (single isomer, unassigned) [Example 33]	7.93	still inhibit AICARFT
O=c1[nH]ccc2cc(F)c(NS(=O)(=O)c3ccc([C@@H]4CC[C@@H](O)C4)s3)cc12 (single isomer, unassigned) [Example 46]	39.6	still inhibit AICARFT
CCC1(C)CC(c2ccc(S(=O)(=O)Nc3cc4c(=O)[nH]ccc4cc3F)s2)=CNC1=O (single isomer, unassigned; isomer 1) [Example 84, 5-(5-Ethyl-5-methyl-6-oxo-1,4,5,6-tetrahydropyridin-3-yl)-N-(6-fluoro-1-oxo-1,2-dihydroisoquinolin-7-yl)thiophe2ne-2-sulfonamide, Isomer 1]	10.1	still inhibit AICARFT
O=c1[nH]ccc2cc(F)c(NS(=O)(=O)c3ccc(N4CC[C@@H](O)C4)s3)cc12 [Example 1, N-(6-Fluoro-1-oxo-1,2-dihydroisoquinolin-7-yl)-5-[(3R)-3-hydroxypyrrolidin-1-yl]thiophene-2-sulfonamide]		still inhibit AICARFT
O=c1[nH]ccc2cc(F)c(NS(=O)(=O)c3ccc(N4C[C@@H](O)C(F)(F)C4)s3)cc12 [Example 41, 5-[(4R)-3,3-difluoro-4-hydroxypyrrolidin-1-yl]-N-(6-fluoro-1-oxo-1,2-dihydroisoquinolin-7-yl)thiophene-2-sulfonamide]	42.2	still inhibit AICARFT
CC1(C)CC(c2ccc(S(=O)(=O)Nc3cc4c(=O)[nH]ccc4cc3F)s2)=CNC1=O [Example 81, 5-(5,5-Dimethyl-6-oxo-1,4,5,6-tetrahydropyridin-3-yl)-N-(6-fluoro-1-oxo-1,2-dihydroisoquinolin-7-yl)thiophene-2-sulfonamide]	10.2	still inhibit AICARFT
